Source: patent publication US10030016B2 (Sunesis Pharmaceuticals, Inc., priority 2009, dated 2018)
Counter-ions that a name gives are not always drawn. Like-named read-outs stand apart in the source and are kept apart here.

Key:
PDK1 = PDK1 (Homo sapiens (Human), UniProt O15530); assay: PDK1 kinase assay (coupled PDK1/AKT/FAM-crosstide assay, IMAP fluorescence polarization); assay type: biochemical
In short: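 Coupled cascade: 0.75 nM PDK1 (51-359) → 10 nM AKT2 (140-467-PIFtide) → 100 nM FAM-crosstide. ATP 40 μM, 25° C, 30 min. IMAP FP (ex 485/em 530), 2 h binding. ΔmP vs conc, 4-param fit.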

[1] = system: phospho-akt (Thr308) in PC-3 cells; assay: Inhibition of phospho-akt (Thr308) in PC-3 cells, MSD phospho-akt 308 ELISA kit; assay type: cell-based; conditions: 2 hours, no serum, read-out: EC50
In short: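 PC-3 cells were seeded overnight in growth medium with 10% FBS, then exposed to compound serially diluted threefold in serum-free medium for 2 hours. Lysates were captured overnight at 4 degrees on MSD plates and phospho-Akt Thr308 was detected electrochemiluminescently, against DMSO high and 5 μM wortmannin low controls.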

[2] = inhibition of phospo-PDK1 in vitro
[3] = Homo sapiens, inhibition of P308 Akt in PC-3 cells, MSD
[4] = Homo sapiens, inhibition of P308 Akt in PC-3 cells using MSD

Sequence of PDK1 (O15530 51-359): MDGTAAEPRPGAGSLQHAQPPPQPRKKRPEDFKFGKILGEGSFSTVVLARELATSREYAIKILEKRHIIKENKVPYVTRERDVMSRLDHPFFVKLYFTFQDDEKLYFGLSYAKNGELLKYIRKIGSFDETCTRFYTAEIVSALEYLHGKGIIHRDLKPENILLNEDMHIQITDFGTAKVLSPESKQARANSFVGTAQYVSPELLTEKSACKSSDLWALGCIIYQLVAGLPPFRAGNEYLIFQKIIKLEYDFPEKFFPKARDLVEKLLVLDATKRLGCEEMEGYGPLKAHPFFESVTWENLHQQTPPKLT

Row | SMILES | IC50 (PDK1; [2]) | EC50 [1, 3] | IC50 (PDK1; inhibition of PDK1 in vitro) | EC50 [1, 4] | other results
1 | C[C@H](NC(=O)c1cc(S(=O)(=O)N(C)C)cnc1NCc1ccc(-c2ccc3ncnc(N)c3c2)s1)c1ccc(F)c(F)c1 [Example 8.7.6, 2-({[5-(4-aminoquinazolin-6-yl)thiophen-2-yl]methyl}amino)-N-[(1S)-1-(3,4-difluorophenyl)ethyl]-5-(dimethylsulfamoyl) pyridine-3-carboxamide] | < 0.1 µM | – | – | – | EC50 ([1]; inhibition of P308 Akt in PC-3 cells, MSD): < 1 µM
2 | Nc1ncnc2ccc(-c3ccc(CNc4ncccc4C(=O)NCc4ccncc4)s3)cc12 [Example 3.38, 2-({[5-(4-aminoquinazolin-6-yl)thiophen-2-yl]methyl}amino)-N-(pyridin-4-ylmethyl) pyridine-3-carboxamide (TFA salt)] | 1 to 5 µM | > 10 µM | – | – | –
3 | CC(NC(=O)c1cccnc1NCc1ccc(-c2ccc3ncnc(N)c3c2)s1)c1ccc(F)c(F)c1 (centres unmarked) [Example 3.19, 2-({[5-(4-aminoquinazolin-6-yl)thiophen-2-yl]methyl}amino)-N-[1-(3,4-difluorophenyl)ethyl] pyridine-3-carboxamide (TFA salt)] | 0.1 to 1 µM | – | – | – | EC50 ([1]; Homo sapiens, PC-3, 2 h, inhibition of P308 Akt in PC-3 cells, MSD): > 10 µM
4 | O=C(NCc1ccc(F)c(F)c1)c1cccnc1NCCOc1ccc2[nH]c(=O)[nH]c2c1 [Example 16.2, N-(3,4-difluorobenzyl)-2-(2-(2-oxo-2,3-dihydro-1H-benzo[d]imidazol-5-yloxy)-ethylamino)nicotinamide] | < 0.1 µM | 1 to 10 µM | – | – | –
5 | Nc1ncnc2ccc(-c3ccc(CNc4nccc5ncn(Cc6ccc(F)c(F)c6)c(=O)c45)s3)cc12 [Ex. 7.8] | < 0.1 µM | < 1 µM | – | – | –
6 | Cn1cnc2cnc(-c3ccc(CNc4ncccc4C(=O)NCc4ccc(F)c(F)c4)s3)cc21 [Example 8.14.3, N-(3,4-difluorobenzyl)-2-({[5-(1-methyl-1H-imidazo [4,5-c]pyridin-6-yl)thiophen-2-yl]methyl}amino)pyridine-3-carboxamide] | > 5 µM | 1 to 10 µM | – | – | –
7 | CNC(=O)c1cccnc1NCc1cccc(-c2c[nH]c3ncccc23)c1 [Example 1.15, N-methyl-2-{[3-(1H-pyrrolo [2,3-b]pyridin-3-yl)benzyl]amino}pyridine-3-carboxamide] | > 5 µM | > 10 µM | – | – | –
8 | Nc1ncnc2ccc(-c3csc(Nc4ncccc4C(=O)NCc4ccc(F)c(F)c4)n3)cc12 [Ex. 13, 2-(4-(4-aminoquinazolin-6-yl)thiazol-2-ylamino)-N-(3,4-difluorobenzyl)-nicotinamide] | 1 to 5 µM | > 10 µM | – | – | –
9 | Nc1ncnc2ccc(-c3ccc(CNc4ncccc4C(=O)Nc4cccc(F)c4)s3)cc12 [Example 3.46, 2-({[5-(4-aminoquinazolin-6-yl)thiophen-2-yl]methyl}amino)-N-(3-fluorophenyl)pyridine-3-carboxamide (TFA salt)] | 0.1 to 1 µM | 1 to 10 µM | – | – | –
10 | CC(C)C(=O)Nc1cnc(NCc2ccc(-c3ccc4ncnc(N)c4c3)s2)c(C(=O)NCc2ccc(F)c(F)c2)c1 [Example 8.5.3, 2-({[5-(4-aminoquinazolin-6-yl)thiophen-2-yl]methyl}amino)-N-(3,4-difluorobenzyl)-5-[(2-methylpropanoyl)amino] pyridine-3-carboxamide] | 0.1 to 1 µM | 1 to 10 µM | – | – | –

Second part, led by results:

Row | IC50 (PDK1; [2]) | EC50 [1, 3] | IC50 (PDK1; inhibition of PDK1 in vitro) | EC50 [1, 4] | SMILES | other results
11 | > 5 µM | > 10 µM | – | – | Cc1ccc(Nc2ncccc2C(=O)NCc2ccc(F)c(F)c2)cc1-c1ccc2c(c1)CNC2=O [Example 17.2] | –
12 | – | – | 0.1 to 1 µM | 1 to 10 µM | CN1CCN(Cc2cccc(NC(=O)c3cc(C(F)(F)F)cnc3NCc3ccc(-c4cnc5[nH]nc(N)c5c4)cc3)c2)CC1 [Example 440, 2-(4-(3-amino-1H-pyrazolo[3,4-b]pyridin-5-yl)benzylamino)-N-(3-((4-methylpiperazin-1-yl)methyl)phenyl)-5-(trifluoromethyl)nicotinamide] | –
13 | < 0.1 µM | < 1 µM | – | – | N#Cc1cnc(N[C@@H](COc2ccc3[nH]c(=O)[nH]c3c2)c2ccccc2)c(C(=O)NCc2ccc(F)c(F)c2)n1 [Example 16.11, (R)-6-cyano-N-(3,4-difluorobenzyl)-3-(2-(2-oxo-2,3-dihydro-1H-benzo[d]imidazol-5-yloxy)-1-phenylethylamino) pyrazine-2-carboxamide] | –
14 | – | – | < 0.1 µM | < 1 µM | O=C(NCc1ccc(F)cc1)c1cccnc1NCc1ccc(-c2cnc3[nH]c(=O)[nH]c3c2)cc1 [Example 360, N-(4-fluorobenzyl)-2-(4-(2-oxo-2,3-dihydro-1H-imidazo [4,5-b]pyridin-6-yl)benzyl-amino)nicotinamide] | –
15 | – | – | < 0.1 µM | < 1 µM | C[C@H](NC(=O)c1cc(C#N)cnc1NCc1ccc(-c2cnc(N)c(C(N)=O)n2)cc1)c1ccc(F)cc1 [Example 217, (S)-3-amino-6-(4-((5-cyano-3-(1-(4-fluorophenyl)ethylcarbamoyl)pyridin-2-ylamino)methyl)phenyl) pyrazine-2-carboxamide] | –
16 | – | – | < 0.1 µM | < 1 µM | N#Cc1ccc(NC(=O)c2cc(C(F)(F)F)cnc2NCc2ccc(-c3cnc4[nH]nc(N)c4c3)cc2)cc1 [Example 300, 2-(4-(3-amino-1H-pyrazolo [3,4-b]pyridin-5-yl)benzylamino)-N-(4-cyanophenyl)-5-(trifluoromethyl)nicotinamide] | –
17 | – | – | < 0.1 µM | < 1 µM | N#Cc1ccc(NC(=O)c2nc(C#N)cnc2NCc2ccc(-c3cnc4[nH]nc(N)c4c3)cc2)cc1 [Example 425, 3-(4-(3-amino-1H-pyrazolo[3,4-b]pyridin-5-yl)benzylamino)-6-cyano-N-(4-cyanophenyl) pyrazine-2-carboxamide] | –
18 | < 0.1 µM | < 1 µM | – | – | N#Cc1cnc(NCc2ccc(-c3cnc4[nH]nc(N)c4c3)cc2)c(C(=O)Nc2ccc(F)cc2)n1 [Example 29, 3-(4-(3-amino-1H-pyrazolo[3,4-b]pyridin-5-yl)benzylamino)-6-cyano-N-(4-fluorophenyl) pyrazine-2-carboxamide] | –
19 | – | – | 0.1 to 1 µM | – | C[C@H](NC(=O)c1cc(C#N)cnc1N[C@H](CC(=O)O)c1ccc(-c2c[nH]c3ncnc(N)c23)cc1)c1ccc(F)cc1 [Example 45, (R)-3-(4-(4-amino-7H-pyrrolo[2,3-d]pyrimidin-5-yl)phenyl)-3-(5-cyano-3-((S)-1-(4-fluorophenyl)ethylcarbamoyl)pyridin-2-ylamino)propanoic acid] | EC50 ([1]; Homo sapiens, PC-3, 2 h, inhibition of P308 Akt in PC-3 cells using MSD): > 10 µM
20 | – | – | < 0.1 µM | 1 to 10 µM | C[C@H](NC(=O)c1cc(C#N)cnc1NCc1ccc(-c2cnc(N)c(C(=O)N(C)C)n2)cc1)c1ccc(F)cc1 [Example 210, (S)-3-amino-6-(4-((5-cyano-3-(1-(4-fluorophenyl)ethylcarbamoyl)pyridin-2-ylamino)methyl)phenyl)-N,N-dimethylpyrazine-2-carboxamide] | –
21 | < 0.1 µM | < 1 µM | – | – | N#Cc1cnc(NCc2ccc(-c3cnc4[nH]nc(N)c4c3)cc2)c(C(=O)NCc2cncc(F)c2)n1 [Example 26, 3-(4-(3-amino-1H-pyrazolo[3,4-b]pyridin-5-yl)benzylamino)-6-cyano-N-((5-fluoropyridin-3-yl)methyl)pyrazine-2-carboxamide] | –
22 | – | – | < 0.1 µM | < 1 µM | N#Cc1cnc(NCc2ccc(-c3c[nH]c4ncnc(N)c34)cc2)c(C(=O)Nc2ccc(F)cc2)n1 [Example 320, 3-(4-(4-amino-7H-pyrrolo[2,3-d]pyrimidin-5-yl)benzylamino)-6-cyano-N-(4-fluorophenyl) pyrazine-2-carboxamide] | –
